Data from ChEMBL document CHEMBL3046558, “Effects of inositol 1,2,6-triphosphate on human liver cancer SMMC-7721 cells” (2012).
Activity calls are given as the source filed them. The calls are words filed in the database; no cut-off is given here.

Key:
[1] = tested on: SMMC-7721; test: Antiproliferative activity against Homo sapiens (human) SMMC7721 cells at 100 ug/ml after 72 hr by MTT assay; assay type: functional
[2] = tested on: SMMC-7721; test: Cell cycle arrest in Homo sapiens (human) SMMC7721 cells assessed as accumulation at G0/G1 phase at 300 ug/ml after 3 days using PI staining by flow cytometry (Rvb =39 %); assay type: functional
[3] = tested on: SMMC-7721; test: Antiproliferative activity against Homo sapiens (human) SMMC7721 cells after 1 to 3 days by MTT assay; assay type: functional, cell-based
[4] = tested on: SMMC-7721; test: Inhibition of AFP expression in nucleolus of Homo sapiens (human) SMMC7721 cells […] after 48 hr by immunohistochemistry analysis; assay type: functional, cell-based
[5] = tested on: SMMC-7721; test: Antiproliferative activity against Homo sapiens (human) SMMC7721 cells at 50 to 700 ug/ml by MTT assay; assay type: functional, cell-based; settings: TDE = time-dependent effect
[6] = tested on: SMMC-7721; test: Cell cycle arrest in Homo sapiens (human) SMMC7721 cells assessed as accumulation at G2/M phase at 100 ug/ml after 3 days using PI staining by flow cytometry (Rvb =11.5 %); assay type: functional
[7] = tested on: SMMC-7721; test: Cell cycle arrest in Homo sapiens (human) SMMC7721 cells assessed as accumulation at S phase at 500 ug/ml after 3 days using PI staining by flow cytometry (Rvb =49.5 %); assay type: functional
[8] = tested on: SMMC-7721; test: Effect on morphology of Homo sapiens (human) SMMC7721 cells assessed as disruption of cell structure at 300 ug/ml after 48 hr using HE staining by optical microscopy; assay type: functional, cell-based
[9] = tested on: SMMC-7721; test: Inhibition of AFP expression in cytoplasm of Homo sapiens (human) SMMC7721 cells […] after 48 hr by immunohistochemistry analysis; assay type: functional, cell-based
[10] = tested on: SMMC-7721; test: Cell cycle arrest in Homo sapiens (human) SMMC7721 cells assessed as accumulation at G2/M phase at 500 ug/ml after 3 days using PI staining by flow cytometry (Rvb =11.5 %); assay type: functional
[11] = tested on: SMMC-7721; test: Cell cycle arrest in Homo sapiens (human) SMMC7721 cells assessed as accumulation at S phase at 100 ug/ml after 3 days using PI staining by flow cytometry (Rvb =49.5 %); assay type: functional
[12] = tested on: SMMC-7721; test: Antiproliferative activity against Homo sapiens (human) SMMC7721 cells at 700 ug/ml after 72 hr by MTT assay; assay type: functional
[13] = tested on: SMMC-7721; test: Antiproliferative activity against Homo sapiens (human) SMMC7721 cells at 50 ug/ml after 72 hr by MTT assay; assay type: functional
[14] = tested on: SMMC-7721; test: Cell cycle arrest in Homo sapiens (human) SMMC7721 cells assessed as accumulation at G2/M phase at 300 ug/ml after 3 days using PI staining by flow cytometry (Rvb =11.5 %); assay type: functional
[15] = tested on: SMMC-7721; test: Cell cycle arrest in Homo sapiens (human) SMMC7721 cells assessed as accumulation at S phase at 300 ug/ml after 3 days using PI staining by flow cytometry (Rvb =49.5 %); assay type: functional
[16] = tested on: SMMC-7721; test: Antiproliferative activity against Homo sapiens (human) SMMC7721 cells at 500 ug/ml after 72 hr by MTT assay; assay type: functional
[17] = tested on: SMMC-7721; test: Cell cycle arrest in Homo sapiens (human) SMMC7721 cells assessed as accumulation at G0/G1 phase at 500 ug/ml after 3 days using PI staining by flow cytometry (Rvb =39 %); assay type: functional
[18] = tested on: SMMC-7721; test: Effect on morphology of Homo sapiens (human) SMMC7721 cells assessed as cell detachment from matrix at 300 ug/ml after 48 hr using HE staining by optical microscopy; assay type: functional, cell-based
[19] = tested on: SMMC-7721; test: Antiproliferative activity against Homo sapiens (human) SMMC7721 cells at 300 ug/ml after 72 hr by MTT assay; assay type: functional
[20] = tested on: SMMC-7721; test: Inhibition of PCNA expression in nucleolus of Homo sapiens (human) SMMC7721 cells […] after 48 hr by immunohistochemistry analysis; assay type: functional, cell-based
[21] = tested on: SMMC-7721; test: Cell cycle arrest in Homo sapiens (human) SMMC7721 cells assessed as accumulation at G0/G1 phase at 100 ug/ml after 3 days using PI staining by flow cytometry (Rvb =39 %); assay type: functional

Question: For `O=P(O)(O)O[C@@H]1[C@H](OP(=O)(O)O)[C@H](O)[C@@H](O)[C@H](O)[C@H]1OP(=O)(O)O` [ATRINOSITOL], which Activity [1] is on record?
Answer: 50.85%

Question: And the Activity [2]?
Answer: 58.9%

Question: What about the Activity [3] of the same compound?
Answer: Dose-dependent effect

Question: And the inhibition [4]?
Answer: Dose-dependent effect

Question: And the Activity [5]?
Answer: tde

Question: And the Activity [6]?
Answer: 21.6%

Question: What about the Activity [7] of the same compound?
Answer: 12.3%

Question: What about the Activity [8] of the same compound?
Answer: Active

Question: What about the inhibition [9] of the same compound?
Answer: Dose-dependent effect

Question: And the Activity [10]?
Answer: 19.9%

Question: What about the Activity [11] of the same compound?
Answer: 39%

Question: What about the Activity [12] of the same compound?
Answer: 79.08%

Question: And the Activity [13]?
Answer: 34.87%

Question: And the Activity [14]?
Answer: 10.6%

Question: What about the Activity [15] of the same compound?
Answer: 30.5%

Question: What about the Activity [16] of the same compound?
Answer: 67.86%

Question: And the Activity [17]?
Answer: 68.1%

Question: What about the Activity [18] of the same compound?
Answer: Active

Question: And the Activity [19]?
Answer: 59.52%

Question: And the inhibition [20]?
Answer: Dose-dependent effect

Question: What about the Activity [21] of the same compound?
Answer: 39.4%
